Earlier results in patent US20080107740A1, “Pharmaceutical composition comprising salmeterol and budesonide for the treatment of respiratory disorders” (GALEPHAR M/F, priority 2001, published 2008).

Tests used:
[1] = tested on: patients with reversible obstructive respiratory disease
[2] = inhaled, administered after or before inhaled corticosteroids

In the case of OCc1cc(C(O)CNCCCCCCOCCCCc2ccccc2)ccc1O (stereo not shown) [Salmeterol], the “onset of significant bronchodilation” value ([1]; after inhalation) is listed as “within minutes”, the “time to maximal bronchodilation” value ([1]; after inhalation) is listed as no more than 2 h and the duration of bronchodilation ([1]; inhalation, patients with reversible obstructive respiratory disease) is listed as “up to 12 hours”. For the same molecule, the tolerability [2] was “well tolerated”.
